# Test results published in patent US6995188B2 (priority 2002, dated 2006).
# Read-outs that look alike come from different tables or passages of the source.
# Key:
# [1] = tested on: human leukemia cell lines; assay type: cell-based
# [2] = tested on: caspase 3 and caspase 3-like activities; assay type: cell-based, human
# U937/PR9 cells = assay type: cell-based, human
# [3] = tested on: blood mononuclear cells from leukemia patients; assay type: cell-based, human
# [4] = tested on: mitochondrial membrane potential; assay type: cell-based, human
# in vivo = settings: Swiss Webster, mouse
# [5] = Swiss Webster, mouse, in vivo; for Dead/Total Number / Dead/Total Number for IP Administration: ip
# physchem = settings: water
# HL-60 cells = assay type: cell-based, human
structure (smiles),measurement,setting,value
"C[As](C)SC[C@H](NC(=O)CC[C@H](N)C(=O)O)C(=O)NCC(=O)O [SGLU1, S-(dimethylarsino) glutathione]",anti-cancer activity against a panel of human leukemia cell lines,[1],significant anti-cancer activity
same,activation of caspases (PhiPhiLux staining),[2],activation of caspases
same,influence of functional PML/RARalpha gene on sensitivity,U937/PR9 cells,no influence on the sensitivity of the cells
same,activity against blood cells from patients with leukemia,[3],significant activity against blood tumor cells from patients with leukemia
same,change of the potential of mitochondrial membrane (CMXRos staining),[4],involves change of the potential of mitochondrial membrane
same,LD50,in vivo,350 mg/kg
same,MTD,in vivo; iv,350 mg/kg
same,tolerance (mortality),[5],tolerated the 178 mg/kg and the 285 mg/kg doses of SGLU1 well
same,Dead/Total Number,[5]; 178 mg/kg,0/5
same,Dead/Total Number,[5]; 285 mg/kg,1/5
same,Dead/Total Number for IP Administration,[5]; 318 mg/kg,0/5
same,Dead/Total Number,[5]; 357 mg/kg,5/5
same,Dead/Total Number for IP Administration,[5]; 375 mg/kg,4/5
same,Dead/Total Number for IV Administration,[5]; 318 mg/kg,1/5
same,Dead/Total Number for IV Administration,[5]; 375 mg/kg,5/5
same,solubility,physchem,~60 mg/mL
same,effect on cell cycle,HL-60 cells,marked accumulation of cells in S-phase of cell cycle
